Marks after values point to notes of the source that are not given here.
Test system: Chinese Hamster Ovary (CHO) cell
Experiment: MTT cytotoxicity in CHO cells of the test compound with and without activation by NADPH-supplemented rat liver microsomes
Assay type: cell-based
Conditions: for IC50: Cricetulus griseus, CHO, cells exposed 24 hours, MTT, mean+sd for three experiments
Description: Test compound activation by CYP enzymes was carried out using NADPH supplemented rat liver microsomes. Incubation mixtures comprised microsomal protein (1 mg/ml), reduced-nicotinamide adenine dinucleotide phosphate (NADPH, 10 mM) and phosphate buffer (pH7.4, 100 mM). Test compound (0.01–100 μM final concentration) in DMSO (20 μl) was added to the microsomal incubation mixtures (0.5 ml) and incubated for 60 min at 37 C. Control incubates contained test compound and microsomal incubation mixture terminated at 0 time. All incubations were terminated by addition of an equal volume of ice-cold acetonitrile and microfuged for 3 min. Aliquots of the supernatant were added to cells in culture and cytotoxicity determined as described below.
Chinese Hamster Ovary (CHO) cell were grown in MEM supplemented with 10% dialysed FBS and G418 (400 μg/ml). All cells were seeded at an initial density of 1000 cells/well in 96-well-plates, incubation at 37° C. for 24 hours. Aliquots (0.1 ml) of the test compound/microsomal/acetonitrile supernatnant was then added to the CHO cells. Cells were then incubated for 24 hours at 37° C., 5% CO2. After this time period MTT (50 μl; 2 mg/ml stock solution) was added to each well and cells were incubated for a further 4 hours. During this time period MTT, a hydrogen acceptor tetrazolium salt, is reduced to formazan dye by mitochondrial dehydrogenase of viable cells. The media was aspirated from cells and DMSO (100 μl/well) added to solubilise the coloured formazan dye. Absorbance of the formazan dye in the 96-well-plates was then determined at 550 nm. The effect of microsomal activation by the test compound on the arrest of CHO cell growth could be determined by comparing the IC50 (concentration that inhibited cell growth by 50%) with and without microsomal incubation.

With `COc1ccc2[nH]c(C(=O)N3CC(CCl)c4c3ccc3ccccc43)cc2c1` (stereo not drawn) [Compound 1.8, 1-(Chloromethyl)-3-[(5-methoxyindol-2-yl)carbonyl]-1,2-dihydro-3H-benz[e]indole] the IC50 (control incubate terminated at 0 time (no microsomal activation)) was 1500 ± 530 nM, the IC50 (supernatant after 60 min incubation with NADPH fortified rat liver microsomes) was 100 nM and the “AF (activity factor, ratio of IC50 cytotoxicity values)” value (ratio of CHO IC50 without and with microsomal activation) was 15.0*.

Source: patent US7192977B2, “Benz-indole and benzo-quinoline derivatives as prodrugs for tumor treatment” (School of Pharmacy, priority 2001, dated 2007)
